# Results: patent US8207134B2, “Fused ring spiroketal derivative and use thereof as anti-diabetic drug” (Chugai Seiyaku Kabushiki Kaisha, priority 2006, dated 2012)
# Target: T1, human SGLT2 (Homo sapiens, UniProt P31639)
# T1 construct: expressed in transfected cells; host or cells: CHO-K1
# T1 sequence (P31639 1-672): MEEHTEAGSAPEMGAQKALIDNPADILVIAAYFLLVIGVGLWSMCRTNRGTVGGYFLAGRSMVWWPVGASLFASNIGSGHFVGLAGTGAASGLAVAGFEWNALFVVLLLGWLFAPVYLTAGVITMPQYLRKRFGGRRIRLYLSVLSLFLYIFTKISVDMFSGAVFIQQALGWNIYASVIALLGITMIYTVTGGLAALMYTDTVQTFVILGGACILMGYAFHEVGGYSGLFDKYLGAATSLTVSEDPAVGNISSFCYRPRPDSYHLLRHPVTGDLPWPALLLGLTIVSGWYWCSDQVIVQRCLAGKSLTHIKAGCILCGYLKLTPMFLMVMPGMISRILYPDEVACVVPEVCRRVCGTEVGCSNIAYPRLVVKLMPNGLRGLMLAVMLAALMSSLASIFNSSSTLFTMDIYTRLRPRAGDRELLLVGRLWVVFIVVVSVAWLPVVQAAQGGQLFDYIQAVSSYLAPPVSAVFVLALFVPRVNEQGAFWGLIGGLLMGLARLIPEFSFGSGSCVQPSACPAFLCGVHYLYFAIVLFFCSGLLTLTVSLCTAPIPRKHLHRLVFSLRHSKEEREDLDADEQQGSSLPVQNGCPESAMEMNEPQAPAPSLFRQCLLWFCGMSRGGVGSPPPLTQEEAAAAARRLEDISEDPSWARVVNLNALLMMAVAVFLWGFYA
# Test: Inhibitory activity against methyl-α-D-glucopyranoside uptake of human Na+-glucose cotransporter SGLT2
# Type: cell-based
# Conditions: CHO-K1 cells stably expressing human SGLT2; methyl-α-D-(U-14C)glucopyranoside uptake, 37° C. for 45 minutes; read-out: Ic50 value (inhibition of SGLT2)
# Description: Evaluation of Inhibitory Activity Against Methyl-α-D-Glucopyranoside Uptake of Human Na^+-Glucose Cotransporter (SGLT1 and SGLT2)
# 2) Construction of Human SGLT2 Expression Vector
# Human SGLT2 cDNA was amplified by PCR with a cDNA library derived from human kidney (Clontech) as a template, synthetic DNA primers and KOD+ DNA Polymerase. The amplified cDNA was inserted into pcRII-Topo vector by using a Topo TA Cloning Dual Promoter kit. E. coli competent cells (TPO10) were transformed with the plasmid vector, cultured in LB medium containing ampicillin (50 mg/L) to grow ampicillin-resistant clones. The plasmid vector containing human SGLT2 cDNA was purified from the clone in a standard manner. Human SGLT2 cDNA added restriction enzyme recognition sites (Xho I at 5′-end, Hind III at 3′-end) was amplified by PCR with the plasmid vector as a template, synthetic DNA primers containing an additional restriction enzyme recognition site and KOD+ DNA Polymerase. This amplified cDNA was digested with Xho I and Hind III, and ligated into expression vector pcDNA3.1(−) digested with Xho I and Hind III by using a Rapid DNA Ligation kit. E. coli competent cells (DH5α) were transformed with the ligated expression vector and grown in ampicillin-containing LB medium. Human SGLT2 expression vector was purified from the ampicillin-resistant clone in a standard manner.
# 3) Establishment of Cell Lines Stably Expressing Human SGLT1 or Human SGLT2
# The human SGLT1 expression vector or the human SGLT2 expression vector was digested with the restriction enzyme Pvu I and transfected into CHO-Kl cells with FuGENE (Roche Diagonostics). After the transfection, the cells were cultured at 37° C. in the presence of 5% CO2 for about 3 weeks in DMEM medium (Gibco) containing penicillin (50 U/mL, SIGMA), streptomycin (50 mg/L, SIGMA), geneticin (200 mg/L, Nacalai Tesque, Inc., Japan) and 20% fetal bovine serum to obtain geneticin-resistant clones. […]
row,IC50,Structure (SMILES)
1,5.1 nM,"CCc1ccc(Cc2cccc3c4c(sc23)C2(OCC4)O[C@H](CO)[C@@H](O)[C@H](O)[C@H]2O)cc1 (stereo in doubt) [Example 3, (1S,3′R,4′S,5′S,6′R)-8-[(4-ethylphenyl)methyl]-3,3′,4,4′,5′,6′-hexahydro-6′-hydroxymethyl-spiro[2-oxa-9-thia-fluorene-1,2′-[2H]pyran]-3′,4′,5′-triol]"
2,3.9 nM,"CCc1ccc(Cc2csc3cc4c(cc23)[C@]2(OC4)O[C@H](CO)[C@@H](O)[C@H](O)[C@H]2O)cc1 [Example 1, (3′R,4′S,5S,5′S,6′R)-3-[(4-ethylphenyl)methyl]-6′-(hydroxymethyl)-3′,4′,5′,6′-tetrahydro-spiro[thieno[2,3,f]isobenzofuran-5(7H),2′-[2H]pyran]-3′,4′,5′-triol]"
3,2 nM,"CCc1ccc(Cn2ccc3cc4c(cc32)[C@]2(OC4)O[C@H](CO)[C@@H](O)[C@H](O)[C@H]2O)cc1 [Example 2, (3′R,4′S,5′S,6′R,7S)-1-[(4-ethylphenyl)methyl]-6′-hydroxymethyl-3′,4,5′,6′-tetrahydro-spiro[furo[3,4,f]indole-7(5H),2′-[2H]pyran]-3′,4′,5′-triol]"
